Data published in patent publication US4731109A, “Herbicidal 2-haloacetanilides” (Monsanto Company, priority 1982, dated 1988).

Tests used:
Quackgrass [1] = assay: Herbicidal effect in a variety of soil types; assay type: in vivo; details: Table XVII B; for selectivity factor (GR15/GR85): in soybeans
From the text: The herbicide treatments were by soil incorporation with seeds planted 0.375 in (0.95 cm) deep, with 0.25 in (0.64 cm overhead irrigation. Observations were made about three weeks after treatment. Selectivity factors are shown in parenthesis.

soybeans = assay: Herbicidal effect in a variety of soil types; assay type: in vivo; details: Table XVII B
Yellow Nutsedge = assay: Greenhouse pre-emergence GR15/GR85 selectivity test; assay type: in vivo; details: Table IV
From the text: (§1) A good grade of top soil is placed in aluminum pans and compacted to a depth of three-eighths to one-half inch from the top of the pan. On the top of the soil is placed a number of seeds or vegetative propagules of various plant species. The soil required to level fill the pans after seeding or adding vegetative propagules is weighed into a pan. The soil and a known amount of the active ingredient applied in a solvent or as a wettable powder suspension are thoroughly mixed, and used to cover the prepared pans. […] As an alternative procedure, the overhead irrigation may be omitted. Observations are made about 2-3 weeks after seeding and treatment.
(§2) A further guide to the effectiveness of a chemical as a selective herbicide is the "selectivity factor" ("SF") for a herbicide in given crops and weeds. The selectivity factor is a measure of the relative degree of crop safety and weed injury and is expressed in terms of the GR15 /GR85 ratio, i.e., the GR15 rate for the crop divided by the GR85 rate for the weed, both rates in kg/ha (lb/A). In the tables below, selectivity factors are shown in parenthesis following the GR85 rate for each weed; the symbol "NS" indicates "non-selective". Marginal or undetermined selectivity is indicated by a dash (--).
(§3) These weeds are commonly associated with such major crops as corn and soybeans. […] The test procedure was the same as described for Tables II and III but modified by the application of an initial overhead irrigation equivalent to 1/4" (0.64 cm) rainfall; subsequent watering was accomplished by subirrigation. "NS" means non-selective within the test limits.
(§4) Unless otherwise noted; greenhouse tests in Table VI and in other tables below involved herbicide treatments by soil incorporation and an initial overhead irrigation followed by subirrigation as described above.

Quackgrass [2] = assay: as above; assay type: in vivo; details: Table IV
From the text: as §1, §2, §3, §4

red rice = assay: as above; assay type: in vivo; details: Table XVI
From the text: as §1, §2, §4

alexandergrass = assay: as above; assay type: in vivo; details: Table XV
From the text: as §1, §2, §4

Texas panicum = assay: as above; assay type: in vivo; details: Table XVI
From the text: as §1, §2, §4

seedling johnsongrass = assay: as above; assay type: in vivo; details: Table XVI
From the text: as §1, §2, §4

shattercane = assay: as above; assay type: in vivo; details: Table XVI
From the text: as §1, §2, §4

itchgrass = assay: as above; assay type: in vivo; details: Table XVI
From the text: as §1, §2, §4

fall panicum = assay: as above; assay type: in vivo; details: Table XVI
From the text: as §1, §2, §4

rape = assay: as above; assay type: in vivo; details: Table XV
From the text: (§5) A good grade of top soil is placed in aluminum pans and compacted to a depth of three-eighths to one-half inch from the top of the pan. On the top of the soil is placed a number of seeds or vegetative propagules of various plant species. The soil required to level fill the pans after seeding or adding vegetative propagules is weighed into a pan. The soil and a known amount of the active ingredient applied in a solvent or as a wettable powder suspension are thoroughly mixed, and used to cover the prepared pans. After treatment, the pans are given an initial overhead irrigation of eater, equivalent to one-fourth inch (0.64 cm) rainfall, then watered by subirrigation as need to give adequate moisture for germination and growth. As an alternative procedure, the overhead irrigation may be omitted. Observations are made about 2-3 weeks after seeding and treatment.
(§6) In the discussion and tables of data below, reference is made to herbicide application rates symbolized as "GR15 " and "GR85 "; these rates are given in kilograms per hectare (kg/ha) which are convertible into pounds per acre (lbs/A) by dividing the kg/ha rate by 1.12.
as §2
(§7) Additionally, pre-emergence herbicidal data from other tests have established that compounds according to this invention also selectively suppress quackgrass, yellow nutsedge and/or other weeds in one or more of the crops cotton, peanuts, bush beans and/or rape. For example, in Table VI are presented data showing the herbicidal selectivity of the compounds of Examples 1 and 2 against quackgrass in rape and snap beans. Unless otherwise noted; greenhouse tests in Table VI and in other tables below involved herbicide treatments by soil incorporation and an initial overhead irrigation followed by subirrigation as described above.
In another greenhouse test, the compounds of Examples 3-5, 9 and 10 were tested for their herbicidal efficacy against a variety of resistant annual and perennial weeds in rape.

wild proso millet = assay: as above; assay type: in vivo, wild proso millet (panicum milicaeum); details: Table XVI
From the text: as §1, §2, §4

corn = assay: as above; assay type: in vivo; details: Table IV
From the text: as §5, §6, §2
In Table IV pre-emergence herbicidal activity data are presented comparing the relative efficacy of the invention compounds and said prior art compounds as selective herbicides against the resistant and troublesome perennial weeds quackgrass and yellow nutsedge in soybeans and corn, respectively. These weeds are commonly associated with such major crops as corn and soybeans. The test data in Table IV were obtained under identical procedural conditions and represent two replicate runs (except for the compound of Example 9 which was present in one comparative test). The test procedure was the same as described for Tables II and III but modified by the application of an initial overhead irrigation equivalent to 1/4" (0.64 cm) rainfall; subsequent watering was accomplished by subirrigation. "NS" means non-selective within the test limits.
as §7

## Cc1cccc(C(F)(F)F)c1N(COC(C)C)C(=O)CCl [Example 4, N--(isopropoxymethyl)-2'-trifluoromethyl-6'-methyl-2-chloroacetanilide]
Quackgrass [1]; Drummer silty clay
  GR85: 0.11 Kg/Ha
  selectivity factor (GR15/GR85): 20
Quackgrass [1]; Florida muck
  GR85: 0.67 Kg/Ha
  selectivity factor (GR15/GR85): > 3
Quackgrass [1]; Florida sand
  GR85: 0.25 Kg/Ha
  selectivity factor (GR15/GR85): 9
Quackgrass [1]; Ray silt loam
  GR85: 0.13 Kg/Ha
  selectivity factor (GR15/GR85): 23
Quackgrass [1]; Sarpy silty clay
  GR85: 0.39 Kg/Ha
  selectivity factor (GR15/GR85): 5.5
Quackgrass [1]; Wabash silty clay
  GR85: 0.24 Kg/Ha
  selectivity factor (GR15/GR85): 12.5
soybeans; Drummer silty clay
  GR15: 2.2 Kg/Ha
soybeans; Florida muck
  GR15: > 2.2 Kg/Ha
soybeans; Florida sand
  GR15: 2.2 Kg/Ha
soybeans; Ray silt loam
  GR15: 3.0 Kg/Ha
soybeans; Sarpy silty clay
  GR15: 2.2 Kg/Ha
soybeans; Wabash silty clay
  GR15: 3.0 Kg/Ha
Yellow Nutsedge; Replicate #1
  GR85: 0.28 Kg/Ha
Yellow Nutsedge; Replicate #2
  GR85: 0.22 Kg/Ha
Yellow Nutsedge; yellow nutsedge in corn, Replicate #1
  selectivity factor (GR15/GR85): 6
Yellow Nutsedge; yellow nutsedge in corn, Replicate #2
  selectivity factor (GR15/GR85): 8.5
Yellow Nutsedge; yellow nutsedge in soybeans, Replicate #1
  selectivity factor (GR15/GR85): 4
Yellow Nutsedge; yellow nutsedge in soybeans, Replicate #2
  selectivity factor (GR15/GR85): 7.5
Quackgrass [2]; Replicate #1
  GR85: 0.33 Kg/Ha
Quackgrass [2]; Replicate #2
  GR85: 0.18 Kg/Ha
Quackgrass [2]; quackgrass in corn, Replicate #1
  selectivity factor (GR15/GR85): 5
Quackgrass [2]; quackgrass in corn, Replicate #2
  selectivity factor (GR15/GR85): 11
Quackgrass [2]; quackgrass in soybeans, Replicate #1
  selectivity factor (GR15/GR85): 3
Quackgrass [2]; quackgrass in soybeans, Replicate #2
  selectivity factor (GR15/GR85): 9.5
Red rice
  GR85 Rate: 0.42 Kg/Ha
Red rice; in lima beans
  selectivity factor (GR15/GR85): > 2.7
Red rice; in peanuts
  selectivity factor (GR15/GR85): 2.3
alexandergrass
  GR85 Rate: 0.42 Kg/Ha
alexandergrass; in rape
  selectivity factor (GR15/GR85): > 2.7
Texas panicum
  GR85 Rate: 0.56 Kg/Ha
Texas panicum; in lima beans
  selectivity factor (GR15/GR85): > 2
Texas panicum; in peanuts
  selectivity factor (GR15/GR85): 1.8
Seedling johnsongrass
  GR85 Rate: 0.51 Kg/Ha
Seedling johnsongrass; in lima beans
  selectivity factor (GR15/GR85): > 2.2
Seedling johnsongrass; in peanuts
  selectivity factor (GR15/GR85): 1.9
shattercane
  GR85 Rate: 0.51 Kg/Ha
shattercane; in lima beans
  selectivity factor (GR15/GR85): > 2.2
shattercane; in peanuts
  selectivity factor (GR15/GR85): 1.9
itchgrass
  GR85 Rate: 0.50 Kg/Ha
itchgrass; in lima beans
  selectivity factor (GR15/GR85): > 2.2
itchgrass; in peanuts
  selectivity factor (GR15/GR85): 2
Fall panicum
  GR85 Rate: 0.13 Kg/Ha
Fall panicum; in lima beans
  selectivity factor (GR15/GR85): > 8.6
Fall panicum; in peanuts
  selectivity factor (GR15/GR85): 7.5
rape
  GR15 Rate: > 1.12 Kg/Ha
Wild proso millet
  GR85 Rate: 0.47 Kg/Ha
Wild proso millet; in lima beans
  selectivity factor (GR15/GR85): > 2.4
Wild proso millet; in peanuts
  selectivity factor (GR15/GR85): 2.1
corn; Replicate #1
  GR15: 1.7 Kg/Ha
corn; Replicate #2
  GR15: 2.0 Kg/Ha
